This is an account of results in patent publication US10517889B2, “Modulators of SMAD7 expression” (Ionis Pharmaceuticals, Inc., priority 2017, dated 2019).

For series [1], the system named is mouse Smad7 mRNA. Description: Murine Smad7 mRNA expression after oral administration in BALB/c mice (Example 11). The format is in vivo. The note with it: 500 mg/kg/day oral for 3 weeks, 24 hours after last dose. The method, then: The objective of this study was to evaluate the efficacy of Ionis SMAD7 antisense oligonucleotides in BALB/c mice following daily oral administration. The Ionis oligonucleotides are cross-reactive with mouse Smad7 mRNA.
Groups of BALB/c mice were orally administered 500 mg/kg/day for 3 weeks of human Smad7 oligonucleotides, ION 790615, ION 798781, or ION 830025, or mouse Smad7 oligonucleotide, ION 772797 (a 3-10-3 cEt gapmer with phosphorothioate backbone and sequence […]; designated herein as SEQ ID NO: 2743). One group of mice was orally administered PBS daily for 3 weeks. Each group contained 4 mice.
To evaluate the efficacy of the oligonucleotides, murine Smad7 mRNA expression in the liver, kidneys, duodenum, ileum, and colon was measured using primer probe set RTS1114.

Series [2] relates to human SMAD7 mRNA. Description: Dose-dependent inhibition of human SMAD7 mRNA expression in Hep3B cells (Example 3, Study 1 and 2). The format is cell-based. The note with it: electroporation; for % inhibition of SMAD7 mRNA expression: approximately 16 hours; for IC50: Study 2 (740-20000 nM). The method, boiled down:
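Hep3B cells, 20,000 per well, electroporated with antisense oligonucleotide at 0.31, 1.25, 5.00 or 20.00 μM (first series) or 0.74, 2.22, 6.67 or 20.00 μM (second series). After ~16 h, SMAD7 mRNA measured by RT-qPCR (RTS5062), normalised to RIBOGREEN total RNA. Percent inhibition vs untreated cells; IC50 derived.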

Series [3] deals with human SMAD7 mRNA. As to the kind of experiment: Antisense inhibition of human SMAD7 mRNA expression in Hep3B cells by 3-10-3 cEt gapmers, 10,000 nM, electroporation (Example 2). Conditions: approximately 24 hours. Format: cell-based. The method, boiled down: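 Hep3B cells (20,000 per well) were electroporated with 10,000 nM 16-mer 3-10-3 cEt gapmer (phosphorothioate, 5-methylcytosine). After about 24 h, SMAD7 mRNA was quantified by qRT-PCR with primer probe set RTS5062, normalised to RIBOGREEN total RNA, and expressed as percent inhibition versus untreated cells.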

Series [4] deals with human SMAD7 mRNA. Description: Dose-dependent inhibition of human SMAD7 mRNA expression in Hep3B cells, comparison with ION 28453 (Example 4). Format: cell-based. Conditions: electroporation, approximately 16 hours; for IC50: SMAD7 mRNA. The method, then:
Cells were plated at a density of 20,000 cells per well and transfected using electroporation with 0.25 μM, 0.74 μM, 2.22 μM, 6.67 μM, or 20.00 μM concentrations of antisense oligonucleotide, as specified in the Tables below. After a treatment period of approximately 16 hours, RNA was isolated from the cells and SMAD7 mRNA levels were measured by quantitative real-time PCR. Primer probe set RTS5062 was used to measure human SMAD7 mRNA levels. SMAD7 mRNA levels were adjusted according to total RNA content, as measured by RIBOGREEN®. Results are presented as percent inhibition of SMAD7 mRNa expression, relative to untreated control cells.
The half maximal inhibitory concentration (IC50) of each oligonucleotide is also presented. […] Several newly designed antisense oligonucleotides had greater potency than the previously disclosed lead compound, ION 28453.

Series [5] relates to mouse Smad7 mRNA. As to the kind of experiment: Murine Smad7 mRNA expression after subcutaneous administration in BALB/c mice (Example 10). The format is in vivo. The note with it: 50 mg/kg subcutaneous once a week for 4 weeks, 24 hours after last dose. On the procedure: The objective of this study was to evaluate the efficacy of Ionis SMAD7 antisense oligonucleotides compared to ION 736697/Mongersen in BALB/c mice following 4 weeks of treatment. Both ION 830025 and ION 798781 are cross-reactive with mouse Smad7 mRNA.
Groups of BALB/c mice were subcutaneously administered 50 mg/kg of Ionis SMAD7 oligonucleotides once a week for 4 weeks. Each group contained 4 mice. One group of mice was administered PBS once a week for 4 weeks. […]

Series [6] in a line: Organ weights after subcutaneous administration in CD-1 mice (Example 6). The format is in vivo. Conditions: end of study, 50 mg/kg subcutaneously twice a week for 7 weeks. On the procedure:
(§1) Groups of 8-9 week old male CD-1 mice were injected subcutaneously twice a week for 7 weeks with 50 mg/kg of Ionis oligonucleotides (100 mg/kg/week dose). Each group contained 4 mice. One group of male CD-1 mice was injected subcutaneously twice a week for 7 weeks with PBS. Plasma was collected for analysis on day 28.
Ionis SMAD7 oligonucleotides that caused any changes in organ weights outside the expected range for antisense oligonucleotides were excluded from further studies.

Series [7] is described as follows: Plasma chemistry markers after subcutaneous administration in CD-1 mice (Example 6). Format: in vivo. Conditions: CD-1 mice plasma at day 46; 50 mg/kg subcutaneously twice a week for 7 weeks. The method, then:
CD-1® mice (Charles River, Mass.) are a multipurpose mice model, frequently utilized for safety and efficacy testing. The mice were treated with Ionis human SMAD7 antisense oligonucleotides selected from studies described above and evaluated.
Groups of 8-9 week old male CD-1 mice were injected subcutaneously twice a week for 7 weeks with 50 mg/kg of Ionis oligonucleotides (100 mg/kg/week dose). Each group contained 4 mice. One group of male CD-1 mice was injected subcutaneously twice a week for 7 weeks with PBS. […]

A short description of series [8]: Hematology assays after subcutaneous administration in CD-1 mice (Example 6). More on the design: RBC / Eosinophils / Monocytes: unit not given here. The note with it: 50 mg/kg subcutaneous twice weekly for 7 weeks. The format is in vivo. On the procedure: as §1
Blood obtained from all mouse groups was measured by an ADVIA2120i hematology analyzer (Siemens, USA) for measurements of the various blood cells, as well as other hematology markers.

Where [9] appears, read: 740 nM, Study 2, relative to untreated control cells.
Setting [10] is: SMAD7 mRNA, Hep3B cells, 10,000 nM antisense oligonucleotide, electroporation, primer probe set RTS5062, relative to untreated control cells.

“And” between values parts separate entries of the source, which are not always exact repeats. Identical values can stand only once. Strand notation (5' to 3'): a small letter for the sugar, then the base; units joined by * are phosphorothioate-linked, units joined directly phosphodiester-linked; [ ] holds rarer units or linkages, { } end groups; capitals alone tell only the bases. k = constrained ethyl (cEt); [5mC] = 5-methylcytosine; d = 2'-deoxy (DNA)

As for “772797 (AATGAACTGTATCTCC; sugars from the 5' end k3 d10 k3, all phosphorothioate, methylation of C not given here) [compound 772797]”, the “Mouse Smad7 mRNA expression (% inhibition), Colon” value with mouse Smad7 mRNA [1] (colon) is given as 1 % inhibition. The “Mouse Smad7 mRNA expression (% inhibition), Duodenum” value in the series on mouse Smad7 mRNA [1] (duodenum) was 36 % inhibition. Besides, the “Mouse Smad7 mRNA expression (% inhibition), Ileum” value with mouse Smad7 mRNA [1] (ileum) turned out to be 8 % inhibition. Besides, in the series on mouse Smad7 mRNA [1] (kidney), the “Mouse Smad7 mRNA expression (% inhibition), Kidney” value was determined as 0 % inhibition. Also, the “Mouse Smad7 mRNA expression (% inhibition), Liver” value in the series with mouse Smad7 mRNA [1] (liver) was found to be 7 % inhibition.
“772568 (antisense kA*kG*k[5mC]*d[5mC]*dT*d[5mC]*dT*dT*dG*dA*d[5mC]*dT*dT*k[5mC]*k[5mC]*kG) [compound 772568]”: the “% inhibition of SMAD7 mRNA expression” value came out at 41% with human SMAD7 mRNA [2] (setting [9]); 62% in the series with human SMAD7 mRNA [2] (2220 nM, Study 2); 58% in the series with human SMAD7 mRNA [2] (6670.0 nM, Study 2); 79% in the series with human SMAD7 mRNA [2] (20000.0 nM, Study 2); 82% with human SMAD7 mRNA [3] (Hep3B cells, electroporation with 10,000 nM antisense oligonucleotide, primer probe set RTS5062, relative to untreated control cells); 0% in the series on human SMAD7 mRNA [4] (0.74 μM). Moreover, the “% inhibition of SMAD7 mRNA expression” value with human SMAD7 mRNA [4] (2.22 μM) is 22% and 25%; in the series with human SMAD7 mRNA [4] (6.67 μM), 36% and 47%; in the series with human SMAD7 mRNA [4] (20.00 μM), 61%. Further, the IC50 in the series on human SMAD7 mRNA [2] was 1 µM; in the series with human SMAD7 mRNA [4], 13 µM and 9 µM. Besides, the “% Inhibition” value in the series with human SMAD7 mRNA [3] (setting [10]) amounted to 45%.
With “801040 (antisense kG*kT*k[5mC]*dA*dT*dG*dA*dA*dA*dG*dA*dT*dT*k[5mC]*kT*kT) [compound 801040]”, the “% inhibition of SMAD7 mRNA expression” value in the series on human SMAD7 mRNA [2] (setting [9]) is 52%; in the series with human SMAD7 mRNA [2] (2220 nM, Study 2), 55%; with human SMAD7 mRNA [2] (6670.0 nM, Study 2), 60%; in the series with human SMAD7 mRNA [2] (20000.0 nM, Study 2) it was 95%; in the series on human SMAD7 mRNA [4] (0.25 μM), 31%; in the series on human SMAD7 mRNA [4] (0.74 μM) it was 44%. In addition, the results for the “% inhibition of SMAD7 mRNA expression” value in the series on human SMAD7 mRNA [4] (2.22 μM), in the series on human SMAD7 mRNA [4] (6.67 μM) and in the series with human SMAD7 mRNA [4] (20.00 μM) were 67%, 63% and 91%, respectively. Also, the concentration for half-maximal inhibition (IC50) with human SMAD7 mRNA [2] and in the series on human SMAD7 mRNA [4] was 1 µM each time. In the series with human SMAD7 mRNA [3] (setting [10]), the “% Inhibition” value is on record as 72%.
Take “ION 736697: uniform deoxy phosphorothioate oligonucleotide GTCGCCCCTTCTCCCCGCAGC (SEQ ID NO: 2736), same sequence and chemistry as GED-0301 (Mongersen) (DNA, all phosphorothioate, methylation of C not given here) [reference compound]”: in the series with mouse Smad7 mRNA [5] (colon), the “Mouse Smad7 mRNA expression (% inhibition), Colon” value is 3 % inhibition. In addition, in the series on mouse Smad7 mRNA [5] (duodenum), the “Mouse Smad7 mRNA expression (% inhibition), Duodenum” value was 0 % inhibition. For the same substance, the “Mouse Smad7 mRNA expression (% inhibition), Ileum” value with mouse Smad7 mRNA [5] (ileum) worked out at 0 % inhibition. The “Mouse Smad7 mRNA expression (% inhibition), Kidney” value with mouse Smad7 mRNA [5] (kidney) was 9 % inhibition. The “Mouse Smad7 mRNA expression (% inhibition), Liver” value in the series on mouse Smad7 mRNA [5] (liver) stood at 6 % inhibition.
As to “801051 (antisense kG*kT*kG*dT*dT*d[5mC]*dA*dA*d[5mC]*dA*dA*dT*dG*k[5mC]*kT*kT) [compound 801051]”, the “% inhibition of SMAD7 mRNA expression” value with human SMAD7 mRNA [2] (setting [9]) was determined as 52%; in the series on human SMAD7 mRNA [2] (2220 nM, Study 2) it was 62%; in the series on human SMAD7 mRNA [2] (6670.0 nM, Study 2), 76%; in the series on human SMAD7 mRNA [2] (20000.0 nM, Study 2), 88%; in the series with human SMAD7 mRNA [4] (0.25 μM), 0%; in the series with human SMAD7 mRNA [4] (0.74 μM), 10%. Further, the “% inhibition of SMAD7 mRNA expression” value with human SMAD7 mRNA [4] (2.22 μM) was found to be 34%; with human SMAD7 mRNA [4] (6.67 μM), 62%; in the series with human SMAD7 mRNA [4] (20.00 μM), 83%. For the same substance, the IC50 in the series on human SMAD7 mRNA [2] and in the series on human SMAD7 mRNA [4] was 4 µM in each case. Besides, in the series on human SMAD7 mRNA [3] (setting [10]), the “% Inhibition” value was determined as 68%.
Take “800821 (antisense kG*k[5mC]*kT*dA*dA*dA*dT*dT*dT*d[5mC]*d[5mC]*dA*dA*kT*kG*kA) [compound 800821]”: the “% Inhibition” value in the series with human SMAD7 mRNA [3] (setting [10]) was 56%. The “% inhibition of SMAD7 mRNA expression” value with human SMAD7 mRNA [4] (0.25 μM) was determined as 14%; with human SMAD7 mRNA [4] (0.74 μM), 30%; with human SMAD7 mRNA [4] (2.22 μM), 35%; in the series with human SMAD7 mRNA [4] (6.67 μM) it was 58%; in the series with human SMAD7 mRNA [4] (20.00 μM), 79%. This substance had an IC50 with human SMAD7 mRNA [4] of 4 µM.
On to “830027 (antisense kA*kA*k[5mC]*d[5mC]*dA*dT*dT*dT*dA*dT*d[5mC]*dT*dG*kG*kT*kG) [compound 830027]”, for which, in series [6], the “Organ weights, Kidneys” value came out at 0.6 g; the “Organ weights, Liver” value came to 2.6 g; the “Organ weights, Spleen” value amounted to 0.2 g. Also, in the series on human SMAD7 mRNA [3] (Hep3B cells, electroporation with 10,000 nM antisense oligonucleotide, SMAD7 mRNA by RT-PCR (RTS5062), relative to untreated control cells), the “% Inhibition” value is reported as 23%. For the same substance, in series [7], the ALT is reported as 40 IU/L, the AST came to 104 IU/L, the Albumin amounted to 2.5 g/dL and the BUN was determined as 23 mg/dL. Also, in series [8], the Eosinophils is listed as 1.9, the Hematocrit is recorded as 44.7%, the Hemoglobin turned out to be 14.7 g/dL and the Lymphocytes turned out to be 64.4%. In series [8], the MCH turned out to be 15.1 pg, the MCHC is on record as 32.9 g/dL, the MCV was 46.3 fL and the Monocytes is recorded as 8.2. Besides, in series [8], the Neutrophils turned out to be 25.6%, the RBC is listed as 9.7, the Reticulocytes is 3.4% and the WBC is reported as 8.6 10^3/μL. Further, the platelets in series [8] is recorded as 1141.8 10^3/μL.
